Data from patent publication US12616713B2, “Methods for enhancing vascular density” (priority 2016, dated 2026).

Experiments:
HAECs = test: Spheroid sprouting assay, HAECs; assay type: cell-based, human; details: VEGF 50 ng/mL
Protocol: ECs spheroids were generated as described previously (Korff and Augustin, 1998, J Cell Biol 143, 1341-1352). ECs (1000 cells per spheroid) were suspended in EGM-2 medium containing 20% methocel (viscosity: 4000 cps, Sigma) and seeded in non-adherent round-bottom 96-well plates (Sigma). Under these conditions all suspended cells contributed to the formation of a single spheroid. The spheroids were harvested after 24 h embedded into collagen gels. Sprouting was initiated by adding C2C12 CM or EBM-2 medium containing VEGF (50 ng/mL). NMN (0.5 mM), NaHS (0.1 mM), DAPT (20 μM, Cayman Chemical) or SU5416 (10 μM, Sigma) were added to the media wherever mentioned. Angiogenic activity was quantified by measuring the sprout length that had grown out of each spheroid analyzing 8-10 spheroids per group.

SIRT1 = SIRT1 protein levels in HUVECs (Western blot); assay type: cell-based, human; details: NaHS 0.1 mM and/or NMN 0.5 mM
Protocol: SDS-PAGE and Western blot analysis were performed according to standard procedures and detected with the ECL detection kit (Bio-rad, Australia). For Western blot analysis antibodies directed against SIRT1 (Sigma), SIRT3 (CST), SIRT6 (SantaCruz), eNOS (Cell Signaling Technology or CST), cleaved Notch1 (CST), total OXPHOS cocktail (Abcam), PGC-1α (Millipore), VEGF (Abcam), VEGFR2 (Abcam), phospho-VEGFR2 (Millipore), Actin (Cell Signaling Technology), Tubulin (Sigma), 14-3-3 (Cell Signaling Technology), GAPDH (SantaCruz) were used. Quantification of band intensities by densitometry was carried out using ImageJ software.

NAD^+ = test: NAD+ levels in HUVECs; assay type: cell-based, human; details: increasing doses of NaHS, 24 hrs
Protocol: Levels of NAD^+ and NADH levels were measured in EC and muscle homogenates using commercially available kit (NAD-NADH Glo, Promega) according to manufacturer's instructions. Alternatively, NAD^+ levels in muscle and liver were measured by assay in-house developed method (Uddin et al., 2016, Front Pharmacol 7, 258). In brief, liver and gastrocnemius samples were homogenized in extraction buffer (10 mM Tris-HCl, 0.5% TritonX-100, 10 mM Nicotinamide, pH7.4) and then centrifuged (12,000×g for 5 min at 4° C.), after which an aliquot of supernatant was taken for protein quantification. After phenol:chloroform:isoamylalcohol (25:24:1) and chloroform extractions the supernatant was separated in two aliquots. One was used to measure total NAD. The other aliquot was acidified with HCl, and then neutralized with NaOH on ice to quantify NAD^+. Samples were mixed in a 96-well plate samples were mixed with alcohol dehydrogenase (ADH) at room temperature. Total NADH and NAD^+ were quantified using a Bio-Rad Imark microplate reader.

HUVECs [1] = test: Seahorse analysis of oxygen consumption rate; assay type: cell-based, human; details: NaHS 100 μM, NMN 500 μM
Protocol: Oxygen consumption rates were measured in accordance with manufacturer instructions using Seahorse XF96 analyzer (Seahorse Bioscience). Briefly, 40,000 HUVECs were plated onto XF96 plates and incubated overnight at 37° C./5% CO2. Next day, the media was replaced with XF assay media (DMEM), supplemented with glucose (1 g/L), glutamate (2 mM) and pyruvate (1 mM) and the pH was adjusted to 7.4. NaHS (100 μM) and/or NMN (500 μM) were added at the start of the experiment. Oxygen consumption measurements were made approximately every 8 minutes under basal conditions, and after the addition of oligomycin (1 μM). Experiments were replicated in six wells and averaged for each experimental condition.

HUVECs [2] = test: Wound scratch assay, HUVECs; assay type: cell-based, human; details: 6 h
Protocol: ECs were cultured until forming a confluent monolayer and a scratch was made using a 200 μL pipette tip. Then the cells were allowed to migrate+/−NaHS (0.1 mM) and +/−NMN (0.5 mM) in EGM-2 medium for 6 hrs. Images were taken at the same location using a brightfield inverted microscope (Olympus 2467) every 2 h. The area of gap closure was calculated using ImageJ software. In some experiments, HUVECs were transduced with Scr or SIRT1 siRNA and cultured until forming a confluent monolayer. The cells were exposed to H2O2 (150 μM) for 1 h and a scratch was made using a 200 μL pipette tip. Then the cells were allowed to migrate with PBS (vehicle), NaHS (100 μM) and/or NMN (500 μM) in EGM-2 medium for 6 h. Images were taken at the same location using a brightfield inverted microscope (Olympus 2467) every 2 h. The area of gap closure was calculated using ImageJ software.

NAMPT = NAMPT (Homo sapiens, UniProt P43490); details: in vitro (Wang et al. 2014); cited from earlier work
CD38 = biological target: T1, CD38 (Homo sapiens, UniProt P28907); details: in vitro (Esande et al. 2013); cited from earlier work
T1 sequence (P28907 1-300): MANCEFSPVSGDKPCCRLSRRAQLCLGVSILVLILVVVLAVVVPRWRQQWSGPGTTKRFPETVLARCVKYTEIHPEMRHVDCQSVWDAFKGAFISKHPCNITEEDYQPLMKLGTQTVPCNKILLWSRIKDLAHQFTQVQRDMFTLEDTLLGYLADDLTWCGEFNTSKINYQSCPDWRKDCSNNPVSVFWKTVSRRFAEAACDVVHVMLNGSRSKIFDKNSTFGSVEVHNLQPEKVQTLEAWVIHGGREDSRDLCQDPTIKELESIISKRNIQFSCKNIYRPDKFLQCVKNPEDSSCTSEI

Sequence of NAMPT (P43490 whole entry, species assumed): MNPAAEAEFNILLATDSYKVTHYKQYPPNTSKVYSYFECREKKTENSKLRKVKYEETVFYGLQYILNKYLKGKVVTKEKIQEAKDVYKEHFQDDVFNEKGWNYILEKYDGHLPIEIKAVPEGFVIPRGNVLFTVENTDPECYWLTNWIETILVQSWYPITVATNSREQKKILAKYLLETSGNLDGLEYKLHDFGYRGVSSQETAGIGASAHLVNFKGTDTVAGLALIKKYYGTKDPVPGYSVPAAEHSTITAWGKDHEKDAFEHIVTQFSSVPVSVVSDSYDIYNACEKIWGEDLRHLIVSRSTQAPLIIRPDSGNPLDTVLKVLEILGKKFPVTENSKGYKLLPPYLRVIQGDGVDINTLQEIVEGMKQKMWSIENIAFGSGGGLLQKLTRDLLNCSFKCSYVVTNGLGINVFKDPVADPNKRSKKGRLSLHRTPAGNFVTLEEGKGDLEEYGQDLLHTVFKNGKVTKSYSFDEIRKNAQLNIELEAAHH

Structure (SMILES): C[C@H](NC(=O)Cc1cc(F)cc(F)c1)C(=O)N[C@H](C(=O)OC(C)(C)C)c1ccccc1 [DAPT, N—[N-(3,5-Difluorophenacetyl)-L-alanyl]-S-phenylglycine t-butyl ester, reference compound]
- sprout length of spheroids (HAECs; DAPT 20 μM, NT or SIRT1 siRNA): increased sprout length irrespective of SIRT1 levels

Structure (SMILES): [Na+].[SH-] [NaHS, sodium hydrosulfide]
- SIRT1 protein levels (SIRT1): increased SIRT1 protein levels
- intracellular NAD^+ levels in ECs (NAD^+): raised intracellular NAD^+ levels in ECs in a dose dependent manner
- basal OCR (HUVECs [1]): lowered the basal OCR
- cell migration in a scratch assay (HUVECs [2]; NT or SIRT1 siRNA HUVECs, NaHS 0.1 mM, independent of VEGF but dependent on SIRT1): increased cell migration
- cell migration (percentage of closed gaps) (HUVECs [2]; Scr or SIRT1 siRNA HUVECs, H2O2 150 μM 1 h, NaHS 100 μM and/or NMN 500 μM): increased cell migration in a SIRT1-dependent manner

Structure (SMILES): OC(CNc1ccccc1)Cn1c2ccc(Br)cc2c2cc(Br)ccc21 (stereo not shown) [P7C3]
- activity of NAMPT (NAMPT): enhances activity of NAMPT in vitro

Structure (SMILES): Cc1cc(C)c(/C=C2\C(=O)Nc3ccccc32)[nH]1 [SU5416, reference compound]
- sprouting of spheroids (HAECs; SU5416 10 μM): completely blocked sprouting

Structure (SMILES): O=c1cc(-c2ccc(O)cc2)oc2cc(O)cc(O)c12 [apigenin, 5,7-dihydroxy-2-(4-hydroxyphenyl)-4H-1-benzopyran-4-one]
- CD38 activity (CD38): inhibitors of CD38 activity in vitro

Structure (SMILES): O=c1c(O)c(-c2ccc(O)c(O)c2)oc2cc(O)cc(O)c12 [quercetin, 2-(3,4-dihydroxyphenyl)-3,5,7-trihydroxy-4H-chromen-4-one]
- CD38 activity (CD38): inhibitors of CD38 activity in vitro
